In US5219884A, “Immunosuppressant” (Taito Co., Ltd., priority 1990, dated 1993):
Like-named read-outs stand apart in the source and are kept apart here.

How the values were obtained:
[1] = in vitro; assay type: cell-based, human; settings: human, read-out: Suppression
Protocol: (§1) Cytotoxicity to human tumor cell lines was examined as follows:
(§2) Cells of human cell lines, K562, MOLT4, U937, HL60, KATOIII, KB, PC-6, PC-14 and CCRF-CEM were separately suspended to the concentration of 2×10^5 cells/ml in the RPMI1640 culture medium supplemented with 20% FCS. Fifty μl of this suspension was added to each well of 96-well microculture plates to which 50 μl of the test solution had been added. After culturing at 37° C. in an atmosphere of 5% carbon dioxide for 72 hours, the absorbancy at 550 nm was measured in the same way as the colorimetry using MTT in Experimental Example 1, and the percent suppression was calculated in the same manner as in Experimental Example 14, which was used as the index of cytotoxicity.

[2] = test system: K562; test: in vitro; assay type: cell-based, human
Protocol: as §1, §2

[3] = test system: PC-14; test: in vitro; assay type: cell-based, human
Protocol: as §1, §2

[4] = test system: CCRF-CEM; test: in vitro; assay type: cell-based, human
Protocol: as §1, §2

[5] = test system: HL60; test: in vitro; assay type: cell-based, human
Protocol: as §1, §2

[6] = test system: KB; test: in vitro; assay type: cell-based, human
Protocol: as §1, §2

[7] = test system: U937; test: in vitro; assay type: cell-based, human
Protocol: as §1, §2

[8] = test system: mouse allogenic mixed lymphocyte reaction (BALB/c responder, C57BL/6 stimulator spleen cells); test: mouse allogenic mixed lymphocyte reaction (MLR), blastogenesis by 3H-thymidine uptake; assay type: cell-based; settings: for inhibition at 0.001 µg/mL / inhibition at 0.01 µg/mL / inhibition at 0.1 µg/mL: Mus musculus, Lymphocyte, read-out: Suppression
Protocol: The immunosuppressive activity of the compounds (I) and their lactones was assayed by using mouse allogenic mixed lymphocyte reaction (hereinafter sometimes abbreviated as MLR). Mouse allogenic MLR was carried out by mixed culture of the BALB/c mouse (H-2^d) spleen cells as the responder cells and the mitomycin C-treated C57BL/6 (H-2^b) spleen cells as the stimulator cells in equal amounts.
The responder cells were prepared as follows: The spleen was resected from 5- to 6-week-old male BALB/c mice, and single cell suspension of spleen cells was prepared by using the RPMI1640 culture medium (containing 60 μg/ml of kanamycin sulfate, 2 mM of L-glutamine, 10 mM of N-2-hydroxyethylpiperazine-N'-2-ethanesulfonate (HEPES) and 0.1% sodium hydrogencarbonate) to which heat-inactivated fetal calf serum (hereinaftersometimes abbreviated as FCS) had been added to 5%. After hemolytic treatment, the cell suspension was adjusted to a concentration of 10^7 cells/ml by using the RPMI1640 culture medium supplemented with 10^-4 M 2-mercaptoethanol and 20% FCS, and was used as the responder cell suspension.
The stimulator cells were prepared as follows:
The spleen was resected from 5- to 6-week-old male C57BL/6 mice, and single cell suspension of spleen cells was prepared by using the RPMI1640 culture medium. After hemolytic treatment, the cells were treated with 40 μg/ml of mitomycin C at 37° C. for 60 minutes. After washing three times, the concentration of the cell suspension was adjusted to 10^7 cells/ ml by using the RPMI1640 culture medium supplemented with 10^-4 M 2-mercaptoethanol and 20% FCS, and was used as the stimulator cell suspension.
Fifty μl of the responder cell suspension, 50μl of the stimulator cell suspension prepared by the above method, and 100 μl of the test substance were placed in 96-well microculture plates, and were cultured at 37° C. in an atmosphere of 5% carbon dioxide for 4 days.
The blastogenesis of lymphocytes was assayed by a method of ^3 H-thymidine uptake as an index. That is, after termination of the culture, 0.5 μCi/well of ^3 H-thymidine was added and cultured for 4 hours. Cells were harvested by a cell-harvester, and the radioactivity incorporated into the cells was determined by a liquid scintillation counter to obtain the index of blastogenesis of lymphocytes in the mouse allogenic MLR. The suppression of the mouse allogenic MLR was evaluated by calculating the percent suppression by the following formula. [formula]
The test substance was dissolved in methanol or suspended in a mixture of methanol and acetic acid, and then diluted with the RPMI1640 culture medium.

[9] = cytotoxicity to tumor cell line MOLT4; assay type: cell-based, human; settings: human, molt4 cells, read-out: Suppression
Protocol: as §1, §2

[10] = test system: MOLT4; test: cytotoxicity to tumor cell line MOLT4; assay type: cell-based, human
Protocol: as §1, §2

[11] = cytotoxicity to mouse L929 cells; assay type: cell-based; settings: mouse, l929 cells, read-out: Suppression
Protocol: (§3) Cytotoxicity to mouse L929 cells was assayed as follows:
(§4) L929 cells were suspended to the concentration of 1.5×10^5 cells/ml in the F12 culture medium supplemented with 10% FCS. One hundred μl of the suspension was added to each well of 96-well microculture plates, and cultured at 37° C. in an atmosphere of 5% carbon dioxide for 24 hours, to which 100 μl of the test solution was added and cultured for further 48 hours. After the culture, 100 μl of the supernatant was removed and the absorbancy at 550 nm was measured in the same way as the colormetry using MTT in Experimental Example 1. The percent suppression was calculated by the following formula used as the index of cytotoxicity. [formula]

[12] = test system: mouse L929 cells; test: cytotoxicity to mouse L929 cells; assay type: cell-based; settings: 550 nm
Protocol: as §3, §4

`CCCCCCC(=O)CCCCCCCCCC1OC(=O)C(N)(CO)C1O` (stereo not drawn) [Example 7] gave a cytotoxicity at 72 h ([1]; ccrf-cem cells, 0.1 μg/ml) of 1.6%, a cytotoxicity at 72 h ([1]; ccrf-cem cells, 1.0 μg/ml) of 5.6% and a cytotoxicity at 72 h ([1]; ccrf-cem cells, 10.0 μg/ml) of 15.2%. The cytotoxicity at 72 h ([1]; hl60 cells, 0.1 μg/ml) was 17.2%, the cytotoxicity at 72 h ([1]; hl60 cells, 1.0 μg/ml) was 18.2% and the cytotoxicity at 72 h ([1]; hl60 cells, 10.0 μg/ml) was 18%. It also gave a cytotoxicity at 72 h ([1]; k562 cells, 0.1 μg/ml) of 0%, a cytotoxicity at 72 h ([1]; k562 cells, 1.0 μg/ml) of 13.8% and a cytotoxicity at 72 h ([1]; k562 cells, 10.0 μg/ml) of 21.6%. For the same molecule, the cytotoxicity at 72 h ([1]; kb cells, 0.1 μg/ml) was 0.5%, the cytotoxicity at 72 h ([1]; kb cells, 1.0 μg/ml) was 4.8% and the cytotoxicity at 72 h ([1]; kb cells, 10.0 μg/ml) was 32.5%. For the same molecule, the cytotoxicity at 72 h ([1]; pc-14 cells, 0.1 μg/ml) was 5.9%, the cytotoxicity at 72 h ([1]; pc-14 cells, 1.0 μg/ml) was 10.5% and the cytotoxicity at 72 h ([1]; pc-14 cells, 10.0 μg/ml) was 33.5%. The cytotoxicity at 72 h ([1]; u937 cells, 0.1 μg/ml) was 0%, the cytotoxicity at 72 h ([1]; u937 cells, 1.0 μg/ml) was 0% and the cytotoxicity at 72 h ([1]; u937 cells, 10.0 μg/ml) was 5.5%. For the same molecule, the Absorbancy ([2]; 0.1 μg/ml) was 0.387, the Absorbancy ([2]; 1.0 μg/ml) was 0.332 and the Absorbancy ([2]; 10.0 μg/ml) was 0.302. It also gave an Absorbancy ([3]; 0.1 μg/ml) of 0.446, an Absorbancy ([3]; 1.0 μg/ml) of 0.424 and an Absorbancy ([3]; 10.0 μg/ml) of 0.315. For the same molecule, the Absorbancy ([4]; 0.1 μg/ml) was 0.681, the Absorbancy ([4]; 1.0 μg/ml) was 0.653 and the Absorbancy ([4]; 10.0 μg/ml) was 0.587. The Absorbancy ([5]; 0.1 μg/ml) was 0.432, the Absorbancy ([5]; 1.0 μg/ml) was 0.427 and the Absorbancy ([5]; 10.0 μg/ml) was 0.428. The Absorbancy ([6]; 0.1 μg/ml) was 0.726, the Absorbancy ([6]; 1.0 μg/ml) was 0.695 and the Absorbancy ([6]; 10.0 μg/ml) was 0.493. The Absorbancy ([7]; 0.1 μg/ml) was 0.588, the Absorbancy ([7]; 1.0 μg/ml) was 0.593 and the Absorbancy ([7]; 10.0 μg/ml) was 0.551. The 3H-thymidine uptake ([8]; 0.001 μg/ml) was 24446 cpm, the 3H-thymidine uptake ([8]; 0.01 μg/ml) was 34378 cpm and the 3H-thymidine uptake ([8]; 0.1 μg/ml) was 3546 cpm. The inhibition at 0.001 µg/mL ([8]; 0.001 μg/ml) was 13.4%, the inhibition at 0.01 µg/mL ([8]; 0.01 μg/ml) was 0% and the inhibition at 0.1 µg/mL ([8]; 0.1 μg/ml) was 100%. It also gave a cytotoxicity at 72 h ([9]; 0.1 μg/ml) of 26.2%, a cytotoxicity at 72 h ([9]; 1.0 μg/ml) of 15.2% and a cytotoxicity at 72 h ([9]; 10.0 μg/ml) of 31%. It also gave an Absorbancy ([10]; 0.1 μg/ml) of 0.107, an Absorbancy ([10]; 1.0 μg/ml) of 0.123 and an Absorbancy ([10]; 10.0 μg/ml) of 0.100. The cytotoxicity at 48 h ([11]; 0.1 μg/ml) was 0%, the cytotoxicity at 48 h ([11]; 1 μg/ml) was 0% and the cytotoxicity at 48 h ([11]; 10 μg/ml) was 0%. For the same molecule, the Absorbancy ([12]; 0.1 μg/ml) was 0.799, the Absorbancy ([12]; 1 μg/ml) was 0.811 and the Absorbancy ([12]; 10 μg/ml) was 0.696.

`CCCCCCC(O)CCCCCCCCCC1OC(=O)C(N)(CO)C1O` (stereo not drawn) [Example 10] showed a cytotoxicity at 72 h ([1]; ccrf-cem cells, 0.1 μg/ml) of 2.9%, a cytotoxicity at 72 h ([1]; ccrf-cem cells, 1.0 μg/ml) of 6.5% and a cytotoxicity at 72 h ([1]; ccrf-cem cells, 10.0 μg/ml) of 6.8%. The cytotoxicity at 72 h ([1]; hl60 cells, 0.1 μg/ml) was 14.4%, the cytotoxicity at 72 h ([1]; hl60 cells, 1.0 μg/ml) was 20.5% and the cytotoxicity at 72 h ([1]; hl60 cells, 10.0 μg/ml) was 22.3%. The cytotoxicity at 72 h ([1]; k562 cells, 0.1 μg/ml) was 0%, the cytotoxicity at 72 h ([1]; k562 cells, 1.0 μg/ml) was 10.9% and the cytotoxicity at 72 h ([1]; k562 cells, 10.0 μg/ml) was 19.2%. The cytotoxicity at 72 h ([1]; kb cells, 0.1 μg/ml) was 0%, the cytotoxicity at 72 h ([1]; kb cells, 1.0 μg/ml) was 0% and the cytotoxicity at 72 h ([1]; kb cells, 10.0 μg/ml) was 16.4%. The cytotoxicity at 72 h ([1]; pc-14 cells, 0.1 μg/ml) was 8.6%, the cytotoxicity at 72 h ([1]; pc-14 cells, 1.0 μg/ml) was 13.3% and the cytotoxicity at 72 h ([1]; pc-14 cells, 10.0 μg/ml) was 33.1%. The cytotoxicity at 72 h ([1]; u937 cells, 0.1 μg/ml) was 6.5%, the cytotoxicity at 72 h ([1]; u937 cells, 1.0 μg/ml) was 7.2% and the cytotoxicity at 72 h ([1]; u937 cells, 10.0 μg/ml) was 11.3%. The Absorbancy ([2]; 0.1 μg/ml) was 0.390, the Absorbancy ([2]; 1.0 μg/ml) was 0.343 and the Absorbancy ([2]; 10.0 μg/ml) was 0.311. For the same molecule, the Absorbancy ([3]; 0.1 μg/ml) was 0.433, the Absorbancy ([3]; 1.0 μg/ml) was 0.411 and the Absorbancy ([3]; 10.0 μg/ml) was 0.317. It also gave an Absorbancy ([4]; 0.1 μg/ml) of 0.672, an Absorbancy ([4]; 1.0 μg/ml) of 0.647 and an Absorbancy ([4]; 10.0 μg/ml) of 0.645. The Absorbancy ([5]; 0.1 μg/ml) was 0.447, the Absorbancy ([5]; 1.0 μg/ml) was 0.415 and the Absorbancy ([5]; 10.0 μg/ml) was 0.406. It also gave an Absorbancy ([6]; 0.1 μg/ml) of 0.743, an Absorbancy ([6]; 1.0 μg/ml) of 0.735 and an Absorbancy ([6]; 10.0 μg/ml) of 0.610. The Absorbancy ([7]; 0.1 μg/ml) was 0.545, the Absorbancy ([7]; 1.0 μg/ml) was 0.541 and the Absorbancy ([7]; 10.0 μg/ml) was 0.517. It also gave a 3H-thymidine uptake ([8]; 0.001 μg/ml) of 19595 cpm, a 3H-thymidine uptake ([8]; 0.01 μg/ml) of 19019 cpm and a 3H-thymidine uptake ([8]; 0.1 μg/ml) of 2405 cpm. It also gave an inhibition at 0.001 µg/mL ([8]; 0.001 μg/ml) of 36.4%, an inhibition at 0.01 µg/mL ([8]; 0.01 μg/ml) of 39.1% and an inhibition at 0.1 µg/mL ([8]; 0.1 μg/ml) of 100%. The cytotoxicity at 72 h ([9]; 0.1 μg/ml) was 0%, the cytotoxicity at 72 h ([9]; 1.0 μg/ml) was 0% and the cytotoxicity at 72 h ([9]; 10.0 μg/ml) was 0%. For the same molecule, the Absorbancy ([10]; 0.1 μg/ml) was 0.148, the Absorbancy ([10]; 1.0 μg/ml) was 0.159 and the Absorbancy ([10]; 10.0 μg/ml) was 0.170. It also gave a cytotoxicity at 48 h ([11]; 1 μg/ml) of 0%, a cytotoxicity at 48 h ([11]; 10 μg/ml) of 0% and a cytotoxicity at 48 h ([11]; 100 μg/ml) of 96%. The Absorbancy ([12]; 1 μg/ml) was 0.722, the Absorbancy ([12]; 10 μg/ml) was 0.661 and the Absorbancy ([12]; 100 μg/ml) was 0.023.
